Each structure is given as a SMILES string. Like-named read-outs stand apart in the source and are kept apart here.

Series [1] concerns purified luciferase protein. As to the kind of experiment: Inhibition of purified luciferase protein (specificity control). The series is classed as biochemical. The settings on record: at 100 μM.
The subject of series [2] is triple negative breast cancer cell line MDA-MB-231. As to the kind of experiment: Cell-based IC50 assay, adherent cells, MDA-MB-231. Conditions: Homo sapiens, 72 hours, CellTiter 96 Aqueous One. As for the experimental part:
(§1) In one embodiment, the IC50s of the compounds provided herein were determined in cell-based assays using adherent cells. In one embodiment, the activity of the compounds provided herein were determined in a cell-based assay using the triple negative breast cancer cell line MDA-MB-468. In one embodiment, the activity of the compounds provided herein were determined in a cell-based assay using the triple negative breast cancer cell line MDA-MB-231. In one embodiment, the activity of the compounds provided herein were determined in a cell-based assay using the triple negative breast cancer cell line 4T1.
(§2) In one embodiment, the cell-based assay may be carried out as provided herein. On day 0, cells were seeded at 20,000 cells per well in 100 μL of media into individual wells of a 96-well tissue culture plate. The next day, compounds were diluted to twice the desired final concentration and added in 100 μL of media for a final volume of 200 μL. Standard solutions for each compound were prepared at 1000× concentration in DMSO. The highest concentration was […]. Serial 1:1 dilutions were made from there for a 6- or 9-point curve (e.g., 20 mM, 10 mM, 5 mM, etc). Compounds were then diluted 1:500 in media, and 100 μL of the resulting solution was added to each well for a final dilution of 1:1000. Each concentration of compound was tested in triplicate. Cells were incubated at 37° C. with 5% CO2. After 72 hours, 20 μL of CellTiter 96 Aqueous One Solution Cell Proliferation Assay (Promega) was added to each well. Cells were placed back in the incubator, and the absorbance at 490 nm was read after 2-3 hours. The concentration of compound that decreased the number of metabolically active cells by 50% was determined and reported as the IC50. “Percent Viability” was determined by subtracting the average background value (media only) and expressed as a ratio to the average value obtained from cells treated with only DMSO.

A short description of series [3]: PK study and oral bioavailability, mouse. The series is classed as in vivo. The settings on record: plasma 0 to 6 h.
A short description of series [4]: Plasma and tumor concentrations at sacrifice in MDA-MB-231 xenograft mice. The series is classed as in vivo, Mouse/nude. As for the experimental part: At study termination, mice still undergoing treatment were given a final dose of compound and sacrificed 2 h later. Average concentrations of compounds in plasma and tumor were determined.
The subject of series [5] is triple negative breast cancer cell line MDA-MB-468. As to the kind of experiment: Cell-based IC50 assay, adherent cells, MDA-MB-468. Conditions: Homo sapiens, 72 hours, CellTiter 96 Aqueous One, metabolically active cells decreased by 50%. On the procedure: as §1, §2
The IC50s of the compounds provided herein and some reference compounds were determined in cell-based assay using triple negative breast cancer cell line MDA-MB-468.

For the next series, the system named is cyclin D3. As to the kind of experiment: Cyclin D3 levels by Western blot in MDA-MB-231 cells. The settings on record: 10 μM, at 18 and 24 h. It is filed as cell-based. As for the experimental part: Cyclin D is one of the most commonly overexpressed genes in breast cancer and high levels correlate with poor prognosis. Furthermore, cyclin D overexpression is correlated with triple-negative basal-like tumors. In one embodiment, the effects of a compound provided herein on cyclin D overexpression were evaluated. […] The density ratio of the cyclin D3 band to respective beta-actin band was determined by Western blot analysis and normalized to DMSO (100%).

For series [6], the system named is highly structured 5′-UTR HB3 (triple stem loop) reporter. Description: Translation of mRNAs with highly structured 5′-UTR versus unstructured. On the procedure: Many proteins that drive cancer growth and survival (including the cyclins, c-myc, and Pim-1) have secondary structures in the 5′-UTR of their mRNA that limit the rate of translational initiation. In one embodiment, the effects of a compound provided herein on translation of such mRNAs relative to mRNAs without highly structured 5′-UTRs were evaluated.

The test system of series [7] is m7GpppN-capped luciferase mRNA reporter. As to the kind of experiment: In vitro HeLa cell extract translation system, translation inhibition. It is filed as biochemical. Conditions: at 10 μM. As for the experimental part: In one embodiment, the compounds provided herein were assayed for translation inhibition activity using an in vitro HeLa cell extract translation system with an m7GpppN-capped luciferase mRNA reporter.

The test system of series [8] is triple negative breast cancer cell line 4T1. As to the kind of experiment: Cell-based IC50 assay, adherent cells, 4T1. The settings on record: 72 hours, CellTiter 96 Aqueous One. On the procedure:
as §1
In one embodiment, the cell-based assay may be carried out as provided herein. On day 0, cells were seeded at 20,000 cells per well in 100 μL of media into individual wells of a 96-well tissue culture plate. The next day, compounds were diluted to twice the desired final concentration and added in 100 μL of media for a final volume of 200 μL. Standard solutions for each compound were prepared at 1000× concentration in DMSO. The highest concentration was 30 mM. […] Cells were placed back in the incubator, and the absorbance at 490 nm was read after 2-3 hours. […] “Percent Viability” was determined by subtracting the average background value (media only) and expressed as a ratio to the average value obtained from cells treated with only DMSO.

The next series has as its system MDA-MB-231 breast tumors. As to the kind of experiment: Tumor growth inhibition in MDA-MB-231 xenograft model for breast cancer. The series is classed as in vivo, Mouse/nude. As for the experimental part: In one embodiment, the effects of a compound provided herein on tumor growth in a mouse animal model were evaluated. In specific embodiments, the mouse animal model was the MDA-MB-231 xenograft model for breast cancer. Studies were performed to evaluate the effect of a compound provided herein on the growth of MDA-MB-231 breast tumors in mice. The test system that was used is summarized below:
Animals were housed 10 mice per cage in micro-isolators, with sterile corn cob bedding, food, and water. Mice were acclimated for 3 days and given food and tap water ad libitum. Animals were examined prior to initiation of the study to assure adequate health and suitability. […] During the course of the study, 12-hour light/12-hour dark cycle were maintained. A nominal temperature range of 20-23° C. with a relative humidity between 30% and 70% was maintained. LabDiet 5053-certified PicoLab Rodent Diet and sterile water were provided ad libitum during the study.
Exemplary Protocol: Ten mice per group were inoculated s.c. on the left flank with 5×10^6 MDA-MB-231 cells. When tumors reached a mean volume of approximately 100 mm^3, animals began treatment with a compound provided herein (See Table 5). […] Tumors were evaluated every Monday, Wednesday and Friday, body weights and condition were evaluated on a daily basis. […]
Tumor Measurement: Tumors were monitored daily. If, during a daily evaluation, an animal's tumor appeared to have exceeded 1500 mm^3, the tumor was measured; and animals with tumors greater than 1500 mm^3 and/or that had become necrotic and/or hindered movement were euthanized. Tumors were measured twice weekly by measuring each tumor in 2 dimensions, along the largest dimension (length, L) and perpendicular to this dimension (width, W). Tumor weights were calculated using the standard formula: (L×W^2)/2. The mean tumor weight and standard error of the mean were calculated for each group at each time point. […]
Animal Weight: All animals were weighed twice weekly throughout the study. Group weight change was expressed as a daily group mean weight. […]

By IC50 is commonly meant the concentration that gives 50% inhibition. High values mean lower potency, low ones higher potency. Consider `CC(C)c1cc(C(C)C)c(S(=O)(=O)Nc2cc(C(F)(F)F)cc(C(F)(F)F)c2)c(C(C)C)c1` [Compound 1, N-[3,5-Bis(trifluoromethyl)phenyl]-2,4,6-triisopropyl-benzenesulfonamide], for which, in [1], the “inhibition of purified luciferase protein” value is recorded as “no inhibition”. The IC50 in series [2] was found to be 13 µM; in series [5], 5 µM; in series [8] it was 15 µM. Moreover, the C0 was 54600 ng/mL in series [3] (IV 5 mg/kg, read-out: IV Administration (5 mg/kg) C0) and 5150 ng/mL in series [3] (PO 25 mg/kg, read-out: PO Administration (25 mg/kg) C0). In addition, the half-life is 2.1 h in series [3] (IV 5 mg/kg, read-out: IV Administration (5 mg/kg) T½ (converted)) and 1.5 h in series [3] (PO 25 mg/kg, read-out: PO Administration (25 mg/kg) T½ (converted)). Moreover, the “levels in plasma and tumor samples after discontinued treatment” value in series [4] (mice that discontinued treatment on Day 31, at study termination) is “detectable levels”. In [4] (nude, mouse, plasma, intraperitoneal, treated until the end: No, none after day 31, sacrificed day 45, read-out: Ave. Plasma Conc.), the concentration at 14 days amounted to 50 ± 20 nM. For the same compound, the concentration at 2 h in series [4] (nude, mouse, plasma, intraperitoneal, treated until the end: Yes, 50/25 mg/kg, sacrificed day 45, 2 h after final dose, read-out: Ave. Plasma Conc.) came out at 2330 ± 270 nM. The “Ave. Tumor Conc.” value is 0.07 ± 0.04 μM/g of tumor tissue in series [4] (treated until the end: No, none after day 31, sacrificed day 45) and 1.25 ± 0.09 μM/g of tumor tissue in series [4] (treated until the end: Yes, 50/25 mg/kg, sacrificed day 45, 2 h after final dose). Moreover, in the series on cyclin D3, the “cyclin D3 levels (density ratio to beta-actin, normalized to DMSO)” value was “decrease in cyclin D3 levels”. Moreover, the “inhibition of highly structured 5′-UTR reporter relative to mRNAs without highly structured 5′-UTRs” value in series [6] is on record as “preferential inhibition”. Moreover, the “inhibition of luciferase activity vs. DMSO” value in [7] stood at 97.4%. Besides, the “mean tumor volume at Day 31” value in the series on MDA-MB-231 breast tumors (qd IP 50 mg/kg, reduced to 25 mg/kg on day 7, vehicle group 898±260 mm^3) was 276±119 mm^3. The compound further displayed a mean weight gain with MDA-MB-231 breast tumors (qd IP 50/25 mg/kg, Days 1 to 31, vehicle group 4.2%) of 0.1%. The “tumor growth after drug withdrawal” value with MDA-MB-231 breast tumors (within 10 days of withdrawal, from day 32) is given as “tumor growth did not resume”.

Source of the values: US11713293B2, “Substituted biaryl sulfonamides and the use thereof” (NovoMedix, LLC, priority 2012, dated 2023).
